# Laboratory results taken from paper PMC4917279 (Journal of Medicinal Chemistry, 2016).
# Tests used:
# Assay in all cases: KINOMEscan
# Assay type in all cases: binding
# Conditions in all cases: read-out: %Ctrl @ 1000 nM
# LYN = molecular target: T1, LYN (Homo sapiens, UniProt P07948)
# T1 construct: purchased DiscoveRx KINOMEscan
# KIT(L576P) = molecular target: T2, KIT(L576P) (Homo sapiens, UniProt P10721, L576P)
# T2 construct: purchased DiscoveRx KINOMEscan
# CIT = molecular target: T3, CIT (Homo sapiens, UniProt O14578)
# T3 construct: purchased DiscoveRx KINOMEscan
# LATS2 = molecular target: T4, LATS2 (Homo sapiens, UniProt Q9NRM7)
# T4 construct: purchased DiscoveRx KINOMEscan
# T4 sequence (Q9NRM7 whole entry): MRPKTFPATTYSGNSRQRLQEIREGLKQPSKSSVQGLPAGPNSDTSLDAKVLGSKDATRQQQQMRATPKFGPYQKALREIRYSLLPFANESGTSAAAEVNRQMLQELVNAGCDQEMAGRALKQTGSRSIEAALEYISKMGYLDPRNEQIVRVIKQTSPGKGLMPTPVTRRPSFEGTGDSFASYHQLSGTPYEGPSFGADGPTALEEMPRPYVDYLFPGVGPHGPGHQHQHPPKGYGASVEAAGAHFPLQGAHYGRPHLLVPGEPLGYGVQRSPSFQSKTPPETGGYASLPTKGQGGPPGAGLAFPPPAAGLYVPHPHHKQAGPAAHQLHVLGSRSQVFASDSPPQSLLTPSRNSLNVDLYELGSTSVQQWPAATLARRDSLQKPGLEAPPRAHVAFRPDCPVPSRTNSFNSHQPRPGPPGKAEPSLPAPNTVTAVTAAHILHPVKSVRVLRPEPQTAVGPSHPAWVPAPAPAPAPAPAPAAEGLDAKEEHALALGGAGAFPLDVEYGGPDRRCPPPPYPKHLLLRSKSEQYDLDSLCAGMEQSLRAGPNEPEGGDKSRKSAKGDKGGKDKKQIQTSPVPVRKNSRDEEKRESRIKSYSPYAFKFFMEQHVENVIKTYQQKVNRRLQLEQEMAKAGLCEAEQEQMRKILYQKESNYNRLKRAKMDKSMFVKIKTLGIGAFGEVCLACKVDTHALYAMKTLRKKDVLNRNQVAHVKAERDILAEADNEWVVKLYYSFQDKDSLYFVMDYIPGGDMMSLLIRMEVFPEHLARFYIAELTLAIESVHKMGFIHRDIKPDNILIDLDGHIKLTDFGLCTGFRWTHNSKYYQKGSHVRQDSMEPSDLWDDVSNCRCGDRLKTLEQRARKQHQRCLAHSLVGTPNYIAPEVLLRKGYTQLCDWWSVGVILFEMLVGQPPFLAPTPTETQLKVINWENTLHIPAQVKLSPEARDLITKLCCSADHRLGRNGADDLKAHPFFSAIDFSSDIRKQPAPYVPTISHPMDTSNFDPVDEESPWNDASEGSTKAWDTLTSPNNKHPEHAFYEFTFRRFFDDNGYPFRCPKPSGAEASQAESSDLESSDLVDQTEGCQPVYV
# MLK1 = molecular target: T5, MLK1 (Homo sapiens, UniProt P80192)
# T5 construct: purchased DiscoveRx KINOMEscan
# YSK4 = molecular target: T6, YSK4 (Homo sapiens, UniProt Q56UN5)
# T6 construct: purchased DiscoveRx
# TLK2 = molecular target: T7, TLK2 (Homo sapiens, UniProt Q86UE8)
# T7 construct: purchased DiscoveRx KINOMEscan
# ULK1 = molecular target: T8, ULK1 (Homo sapiens, UniProt O75385)
# T8 construct: purchased DiscoveRx KINOMEscan
# EPHA1 = molecular target: T9, EPHA1 (Homo sapiens, UniProt P21709)
# T9 construct: purchased DiscoveRx KINOMEscan
# PRKCH = molecular target: T10, PRKCH (Homo sapiens, UniProt P24723)
# T10 construct: purchased DiscoveRx KINOMEscan
# KIT(D816V) = molecular target: T11, KIT(D816V) (Homo sapiens, UniProt P10721, D816V)
# T11 construct: purchased DiscoveRx KINOMEscan
# BRSK1 = molecular target: T12, BRSK1 (Homo sapiens, UniProt Q8TDC3)
# T12 construct: purchased DiscoveRx KINOMEscan
# [1] = molecular target: T13, ABL1(Q252H)-phosphorylated (Homo sapiens, UniProt P00519, Q252H)
# T13 construct: purchased DiscoveRx (KINOMEscan service)
# TBK1 = molecular target: T14, TBK1 (Homo sapiens, UniProt Q9UHD2)
# T14 construct: purchased DiscoveRx KINOMEscan
# AURKC = molecular target: T15, AURKC (Homo sapiens, UniProt Q9UQB9)
# T15 construct: purchased DiscoveRx KINOMEscan
# PIK3CA = molecular target: T16, PIK3CA (Homo sapiens, UniProt P42336)
# T16 construct: purchased DiscoveRx KINOMEscan
# p38-delta = molecular target: T17, p38-delta (Homo sapiens, UniProt O15264)
# T17 construct: purchased DiscoveRx KINOMEscan
# FGR = molecular target: T18, FGR (Homo sapiens, UniProt P09769)
# T18 construct: purchased DiscoveRx KINOMEscan
# MEK5 = molecular target: T19, MEK5 (Homo sapiens, UniProt Q13163)
# T19 construct: purchased DiscoveRx KINOMEscan
# PKAC-beta = molecular target: T20, PKAC-beta (Homo sapiens, UniProt P22694)
# T20 construct: purchased DiscoveRx KINOMEscan
# DMPK = molecular target: T21, DMPK (Homo sapiens, UniProt Q09013)
# T21 construct: purchased DiscoveRx KINOMEscan
# STK33 = molecular target: T22, STK33 (Homo sapiens, UniProt Q9BYT3)
# T22 construct: purchased DiscoveRx KINOMEscan
# EPHB2 = molecular target: T23, EPHB2 (Homo sapiens, UniProt P29323)
# T23 construct: purchased DiscoveRx KINOMEscan
# T23 sequence (P29323 19-1055): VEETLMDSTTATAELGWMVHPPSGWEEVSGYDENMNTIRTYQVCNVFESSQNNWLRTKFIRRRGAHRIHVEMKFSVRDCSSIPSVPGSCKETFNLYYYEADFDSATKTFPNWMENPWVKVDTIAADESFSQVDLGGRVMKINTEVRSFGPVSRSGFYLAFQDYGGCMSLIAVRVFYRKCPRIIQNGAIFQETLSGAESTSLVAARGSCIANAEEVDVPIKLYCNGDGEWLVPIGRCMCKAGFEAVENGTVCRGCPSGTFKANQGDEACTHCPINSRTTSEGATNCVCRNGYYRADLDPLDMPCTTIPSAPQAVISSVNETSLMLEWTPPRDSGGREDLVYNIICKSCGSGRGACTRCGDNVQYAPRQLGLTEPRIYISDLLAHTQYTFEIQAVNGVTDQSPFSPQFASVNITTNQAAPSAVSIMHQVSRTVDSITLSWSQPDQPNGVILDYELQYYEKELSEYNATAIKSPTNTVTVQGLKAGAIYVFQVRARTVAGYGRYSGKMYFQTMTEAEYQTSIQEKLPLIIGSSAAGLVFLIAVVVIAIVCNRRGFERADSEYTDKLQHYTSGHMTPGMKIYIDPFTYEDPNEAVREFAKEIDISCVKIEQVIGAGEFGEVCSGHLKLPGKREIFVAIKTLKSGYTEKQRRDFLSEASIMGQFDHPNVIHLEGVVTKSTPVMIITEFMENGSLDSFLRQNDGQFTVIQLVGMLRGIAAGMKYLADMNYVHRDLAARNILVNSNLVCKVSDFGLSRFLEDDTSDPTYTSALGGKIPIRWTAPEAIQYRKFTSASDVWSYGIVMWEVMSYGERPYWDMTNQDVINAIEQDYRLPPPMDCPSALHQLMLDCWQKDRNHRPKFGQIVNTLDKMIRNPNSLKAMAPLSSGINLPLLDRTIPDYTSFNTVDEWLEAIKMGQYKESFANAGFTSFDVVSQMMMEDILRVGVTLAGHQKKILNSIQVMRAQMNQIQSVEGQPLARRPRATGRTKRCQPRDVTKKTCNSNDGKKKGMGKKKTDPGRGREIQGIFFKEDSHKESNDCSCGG
# FGFR4 = molecular target: T24, FGFR4 (Homo sapiens, UniProt P22455)
# T24 construct: purchased DiscoveRx KINOMEscan
# MAP3K4 = molecular target: T25, MAP3K4 (Homo sapiens, UniProt Q9Y6R4)
# T25 construct: purchased DiscoveRx KINOMEscan
# YSK1 = molecular target: T26, YSK1 (Homo sapiens, UniProt O00506)
# T26 construct: purchased DiscoveRx
# CDKL1 = molecular target: T27, CDKL1 (Homo sapiens, UniProt Q00532)
# T27 construct: purchased DiscoveRx KINOMEscan
# DLK = molecular target: T28, DLK (Homo sapiens, UniProt Q12852)
# T28 construct: purchased DiscoveRx KINOMEscan
# T28 sequence (Q12852 whole entry): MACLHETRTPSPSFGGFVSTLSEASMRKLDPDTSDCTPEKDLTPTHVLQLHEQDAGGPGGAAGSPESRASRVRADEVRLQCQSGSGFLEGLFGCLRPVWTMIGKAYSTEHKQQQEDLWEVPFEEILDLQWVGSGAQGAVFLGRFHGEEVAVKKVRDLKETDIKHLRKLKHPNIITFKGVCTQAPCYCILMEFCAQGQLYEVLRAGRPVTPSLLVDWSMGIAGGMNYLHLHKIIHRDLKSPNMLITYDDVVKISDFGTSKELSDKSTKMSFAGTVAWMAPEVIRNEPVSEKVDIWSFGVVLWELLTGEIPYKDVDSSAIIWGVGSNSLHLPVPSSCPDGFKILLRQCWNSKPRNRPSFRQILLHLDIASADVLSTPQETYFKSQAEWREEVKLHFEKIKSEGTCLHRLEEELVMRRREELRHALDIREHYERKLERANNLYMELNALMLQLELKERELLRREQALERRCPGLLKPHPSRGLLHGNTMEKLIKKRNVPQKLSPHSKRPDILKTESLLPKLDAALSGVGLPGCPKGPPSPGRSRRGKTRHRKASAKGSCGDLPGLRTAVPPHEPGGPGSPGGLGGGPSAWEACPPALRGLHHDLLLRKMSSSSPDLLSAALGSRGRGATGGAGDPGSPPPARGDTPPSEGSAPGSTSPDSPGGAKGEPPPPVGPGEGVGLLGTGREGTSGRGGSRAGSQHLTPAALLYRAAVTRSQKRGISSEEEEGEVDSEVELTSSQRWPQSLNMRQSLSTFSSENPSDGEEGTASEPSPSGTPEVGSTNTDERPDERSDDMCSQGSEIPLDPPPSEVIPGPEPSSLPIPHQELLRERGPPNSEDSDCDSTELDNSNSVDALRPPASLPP
# EPHA5 = molecular target: T29, EPHA5 (Homo sapiens, UniProt P54756)
# T29 construct: purchased DiscoveRx KINOMEscan
# T29 sequence (P54756 25-1037): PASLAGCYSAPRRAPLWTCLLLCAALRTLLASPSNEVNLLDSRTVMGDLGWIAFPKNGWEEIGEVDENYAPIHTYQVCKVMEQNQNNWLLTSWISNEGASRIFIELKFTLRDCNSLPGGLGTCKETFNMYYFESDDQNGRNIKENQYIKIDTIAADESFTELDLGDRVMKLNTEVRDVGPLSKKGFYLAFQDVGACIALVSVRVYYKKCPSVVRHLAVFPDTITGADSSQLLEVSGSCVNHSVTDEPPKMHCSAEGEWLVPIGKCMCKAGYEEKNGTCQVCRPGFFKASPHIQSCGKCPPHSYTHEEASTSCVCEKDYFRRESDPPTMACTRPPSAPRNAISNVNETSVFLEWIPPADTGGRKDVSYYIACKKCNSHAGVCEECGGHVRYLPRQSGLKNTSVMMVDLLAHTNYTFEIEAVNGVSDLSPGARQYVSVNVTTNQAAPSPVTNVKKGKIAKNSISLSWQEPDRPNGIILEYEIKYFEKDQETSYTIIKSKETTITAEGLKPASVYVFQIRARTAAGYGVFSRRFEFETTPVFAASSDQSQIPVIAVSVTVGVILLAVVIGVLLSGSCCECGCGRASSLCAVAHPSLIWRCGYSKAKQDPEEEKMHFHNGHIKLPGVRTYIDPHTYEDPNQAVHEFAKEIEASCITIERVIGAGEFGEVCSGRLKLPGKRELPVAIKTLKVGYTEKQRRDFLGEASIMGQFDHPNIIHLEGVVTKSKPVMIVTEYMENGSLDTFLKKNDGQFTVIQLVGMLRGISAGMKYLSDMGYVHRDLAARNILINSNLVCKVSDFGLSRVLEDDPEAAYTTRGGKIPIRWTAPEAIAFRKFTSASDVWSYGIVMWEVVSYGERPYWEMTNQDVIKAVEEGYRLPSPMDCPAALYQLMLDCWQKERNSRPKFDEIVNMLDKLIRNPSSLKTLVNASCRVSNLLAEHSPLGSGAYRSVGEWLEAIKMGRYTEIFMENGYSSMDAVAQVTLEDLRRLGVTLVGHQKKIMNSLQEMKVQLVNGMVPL
# MAP4K5 = molecular target: T30, MAP4K5 (Homo sapiens, UniProt Q9Y4K4)
# T30 construct: purchased DiscoveRx KINOMEscan
# NEK7 = molecular target: T31, NEK7 (Homo sapiens, UniProt Q8TDX7)
# T31 construct: purchased DiscoveRx KINOMEscan
# [2] = molecular target: T32, JAK3(JH1domain-catalytic) (Homo sapiens, UniProt P52333)
# T32 construct: JAK3(JH1domain-catalytic); purchased DiscoveRx KINOMEscan
# ERK8 = molecular target: T33, ERK8 (Homo sapiens, UniProt Q8TD08)
# T33 construct: purchased DiscoveRx KINOMEscan
# LTK = molecular target: T34, LTK (Homo sapiens, UniProt P29376)
# T34 construct: purchased DiscoveRx KINOMEscan
# MAST1 = molecular target: T35, MAST1 (Homo sapiens, UniProt Q9Y2H9)
# T35 construct: purchased DiscoveRx KINOMEscan
# MYLK4 = molecular target: T36, MYLK4 (Homo sapiens, UniProt Q86YV6)
# T36 construct: purchased DiscoveRx KINOMEscan
# IRAK4 = molecular target: T37, IRAK4 (Homo sapiens, UniProt Q9NWZ3)
# T37 construct: purchased DiscoveRx KINOMEscan
# T37 sequence (Q9NWZ3 whole entry): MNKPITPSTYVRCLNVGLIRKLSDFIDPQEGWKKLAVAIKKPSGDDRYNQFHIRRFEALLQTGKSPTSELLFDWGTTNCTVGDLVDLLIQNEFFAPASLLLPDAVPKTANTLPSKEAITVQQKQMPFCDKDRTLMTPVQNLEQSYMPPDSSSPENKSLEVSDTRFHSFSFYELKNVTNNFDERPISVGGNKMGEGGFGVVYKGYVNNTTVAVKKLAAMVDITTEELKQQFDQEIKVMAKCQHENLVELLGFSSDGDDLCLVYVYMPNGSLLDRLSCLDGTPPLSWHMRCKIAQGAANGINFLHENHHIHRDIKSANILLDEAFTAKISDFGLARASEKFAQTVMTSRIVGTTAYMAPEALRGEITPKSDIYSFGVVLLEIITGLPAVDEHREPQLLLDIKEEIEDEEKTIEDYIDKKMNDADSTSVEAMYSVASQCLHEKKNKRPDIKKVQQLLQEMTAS
# CDK9 = molecular target: T38, CDK9 (Homo sapiens, UniProt P50750)
# T38 construct: purchased DiscoveRx KINOMEscan
# PAK6 = molecular target: T39, PAK6 (Homo sapiens, UniProt Q9NQU5)
# T39 construct: purchased DiscoveRx KINOMEscan
# ERK2 = molecular target: T40, ERK2 (Homo sapiens, UniProt P28482)
# T40 construct: purchased DiscoveRx KINOMEscan
# PIK3CA(M1043I) = molecular target: T41, PIK3CA(M1043I) (Homo sapiens, UniProt P42336, M1043I)
# T41 construct: purchased DiscoveRx KINOMEscan
# PKAC-alpha = molecular target: T42, PKAC-alpha (Homo sapiens, UniProt P17612)
# T42 construct: purchased DiscoveRx KINOMEscan
# KIT-autoinhibited = molecular target: T43, KIT-autoinhibited (Homo sapiens, UniProt P10721)
# T43 construct: purchased DiscoveRx KINOMEscan
# FLT3(R834Q) = molecular target: T44, FLT3(R834Q) (Homo sapiens, UniProt P36888, R834Q)
# T44 construct: purchased DiscoveRx KINOMEscan
# T1 sequence (P07948 whole entry): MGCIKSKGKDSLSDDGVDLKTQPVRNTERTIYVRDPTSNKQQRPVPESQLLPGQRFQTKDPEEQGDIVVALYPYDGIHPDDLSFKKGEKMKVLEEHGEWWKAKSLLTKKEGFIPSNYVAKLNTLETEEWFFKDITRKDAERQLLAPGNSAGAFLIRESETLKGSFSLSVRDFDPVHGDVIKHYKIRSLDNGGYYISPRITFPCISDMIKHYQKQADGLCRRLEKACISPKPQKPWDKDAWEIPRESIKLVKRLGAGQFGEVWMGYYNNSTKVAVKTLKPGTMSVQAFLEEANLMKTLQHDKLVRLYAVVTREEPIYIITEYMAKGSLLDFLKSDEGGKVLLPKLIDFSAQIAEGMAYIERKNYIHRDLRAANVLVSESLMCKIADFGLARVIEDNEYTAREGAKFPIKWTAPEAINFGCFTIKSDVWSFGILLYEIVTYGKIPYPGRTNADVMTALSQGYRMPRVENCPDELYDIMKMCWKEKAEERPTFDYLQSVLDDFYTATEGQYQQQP
smiles,measurement,setting,value
CCN(C(=O)CO)[C@H]1CN(/C(=N\C#N)Nc2cccc(OC(F)F)c2)N=C1c1ccc(Cl)c(Cl)c1 [(S)-4],remaining binding at 1 µM,LYN,80%
same,remaining binding at 1 µM,KIT(L576P),85%
same,remaining binding at 1 µM,CIT,63%
same,remaining binding at 1 µM,LATS2,100%
same,remaining binding at 1 µM,MLK1,100%
same,remaining binding at 1 µM,YSK4,93%
same,remaining binding at 1 µM,TLK2,93%
same,remaining binding at 1 µM,ULK1,64%
same,remaining binding at 1 µM,EPHA1,86%
same,remaining binding at 1 µM,PRKCH,80%
same,remaining binding at 1 µM,KIT(D816V),86%
same,remaining binding at 1 µM,BRSK1,100%
same,remaining binding at 1 µM,[1],100%
same,remaining binding at 1 µM,TBK1,82%
same,remaining binding at 1 µM,AURKC,77%
same,remaining binding at 1 µM,PIK3CA,97%
same,remaining binding at 1 µM,p38-delta,72%
same,remaining binding at 1 µM,FGR,100%
same,remaining binding at 1 µM,MEK5,100%
same,remaining binding at 1 µM,PKAC-beta,100%
same,remaining binding at 1 µM,DMPK,100%
same,remaining binding at 1 µM,STK33,83%
same,remaining binding at 1 µM,EPHB2,74%
same,remaining binding at 1 µM,FGFR4,71%
same,remaining binding at 1 µM,MAP3K4,75%
same,remaining binding at 1 µM,YSK1,90%
same,remaining binding at 1 µM,CDKL1,76%
same,remaining binding at 1 µM,DLK,94%
same,remaining binding at 1 µM,EPHA5,100%
same,remaining binding at 1 µM,MAP4K5,100%
same,remaining binding at 1 µM,NEK7,100%
same,remaining binding at 1 µM,[2],48%
same,remaining binding at 1 µM,ERK8,96%
same,remaining binding at 1 µM,LTK,65%
same,remaining binding at 1 µM,MAST1,83%
same,remaining binding at 1 µM,MYLK4,100%
same,remaining binding at 1 µM,IRAK4,100%
same,remaining binding at 1 µM,CDK9,74%
same,remaining binding at 1 µM,PAK6,100%
same,remaining binding at 1 µM,ERK2,98%
same,remaining binding at 1 µM,PIK3CA(M1043I),68%
same,remaining binding at 1 µM,PKAC-alpha,74%
same,remaining binding at 1 µM,KIT-autoinhibited,90%
same,remaining binding at 1 µM,FLT3(R834Q),100%
